Marks after values point to notes of the source that are not given here.

Details of assay [1]: method as in PMID 31683151. Conditions: compound 5 mM, MGO 5 mM; cited from earlier work.
Assay [2] can be described thus: DPPH radical scavenging assay. The method, then:
After incubation in the dark for 30 min, the absorbance was read at 516 nm, using a UV–Vis spectrophotometer (Agilent Technologies, Santa Clara, CA, USA). Results were expressed as the half-maximal inhibitory concentration (IC50) in μg/mL.
For orientation: Loss of DPPH colour is used to gauge radical scavenging.

A short description of assay [3]: Superoxide anion radical scavenging activity. The method, then:
The potential of the samples to scavenger superoxide anion radicals was determined, with minor modifications. […] Phosphate buffer (19 mM, pH 7.4) was used to dissolve NADH, NBT, and PMS. QCT was used as means of comparison. The experiment was conducted at 37 °C in a microplate reader (Infinite® 200 PRO, TECAN, Männedorf, Switzerland), and the absorbance was measured at 560 nm. The results were expressed as IC50 of extract solution in μg/mL.

Assay [4] in a line: MGO capture using derivatization with OPD (HPLC). Conditions: PESE 2 mg/mL, PIC 2 mM, AMG 2 mM; MGO 2 mM; 37 °C, 1 h. On the procedure: MGO scavenging was tested using a described procedure, with slight modifications. The quantification of MGO was based on derivatization with OPD, leading to the formation of the product 2-methylquinoxyline (2-MQ). MGO and OPD were dissolved in phosphate buffer (50 mM, pH 7.4) to a concentration of 2 mM and 4 mM, respectively. […] The reaction system was composed of 125 μL of the MGO solution, 125 μL of phosphate buffer (negative control), or PESE incubated at 37 °C for 1 h. After 250 μL of the OPD solution was added, the tubes were kept for 30 min for the derivatization reaction between MGO and OPD to complete. Then, the chromatographic analysis was performed. All solutions were previously filtered (microfilter pore diameter 0.45 μm). […] The linear gradient for elution was: starting at 5% of solvent B, 0–3 min, 5 to 50% B; 3–16 min, isocratic in 50% B; 16–17 min, 50–90% B; 17–19 min, isocratic in 90% B and 19–19.5 min, 90–5% B. The derivatization product, 2-methylquinoxyline (2-MQ), was detected at 315 nm, with a retention time of 10 min. The percentage of trapping efficiency of MGO was calculated using the following equation: % trapping MGO = [100 − (peak area after adding sample/peak area without adding sample) × 100].

Assay [5] deals with amyloid fibrils of glycated BSA (BSA/MGO). The assay can be described thus: Inhibition of amyloid fibril formation, ThT assay (BSA/MGO). The class given is biochemical, bovine. Conditions: highest obtained, PESE 200, PIC 200, AMG 100 µg/mL. On the procedure:
(§1) The BSA-MGO assay was based on those described before, with some modifications. This experiment is based on the formation of fluorescent AGEs from the middle stage of protein glycation. MGO (1.5 mM) and BSA (3 mg/mL) were dissolved separately in 0.05 M phosphate buffer (pH 7.4) containing NaCl (100 mM) and NaN3 (0.02% w/v). Then, 300 μL of MGO was incubated with samples at different concentrations (dissolved in a buffer containing 60% ethanol) for an hour at 37 °C, in the dark, with constant stirring. After BSA (3 mg/mL) was added to the reaction mixture and incubation time was extended to 48 h at 37 °C in darkness. The rest of the procedure was the same as that for the BSA-glucose/fructose model that is described above. The percentage of the AGE inhibition and IC50 was calculated as described in Section 3.3.1.
The fibrillar state of modified BSA was determined with ThT as previously described. ThT is a probe that binds directly to amyloid fibrils to give a strong fluorescent signal and thus can be used to quantify β-amyloid due to protein glycation. Basically, 30 μL of glycated protein (approx. 1 mg/mL), obtained as described previously, was mixed with 100 μL ThT reagent (10 μM ThT in 100 mM phosphate buffer, pH 7.0), and fluorescence was collected at excitation/emission wavelengths of 450/490 nm in a microplate reader (Infinite® 200 PRO, TECAN, Männedorf, Switzerland). […]

The test system of another assay is BSA/MGO fluorescent AGEs. The assay can be described thus: Inhibition of AGE formation, intermediate stage of glycation (BSA/MGO). The class given is biochemical, bovine. Conditions: BSA/MGO model. On the procedure:
as §1

In assay [6] the test system is BSA/fructose + glucose fluorescent AGEs. As to the kind of experiment: Inhibition of AGE formation, initial stage of glycation (BSA/fructose + glucose). The format is biochemical, bovine. Conditions: BSA/fructose + glucose model, 7 days, 37 °C. On the procedure:
The formation of AGEs was measured after incubation of a system containing protein and carbohydrates. This assay was based on previous methods. The reaction system was obtained by adding 300 µL of plant extract or of the pure compound (at different concentrations), 150 µL D-fructose (200 mM), 150 µL of D-glucose (200 mM), and 300 µL of bovine serum albumin (BSA, 3 mg/mL) to a test tube. All these solutions, except plant extract, were dissolved in 0.05 M potassium phosphate buffer (pH 7.4) containing NaCl (100 mM) and NaN3 (0.02% w/v). The plant extract was prepared in a buffer containing 60% ethanol. The mixture was incubated in the dark at 37 °C for 7 days with constant stirring. After the incubation, 200 µL of the reaction mixture was transferred to a 96-well black plate, and fluorescent AGEs were measured using a microplate reader (Infinite® 200 PRO, TECAN, Männedorf, Switzerland) at λex = 360 and λem = 440 nm. […]. Aminoguanidine (AMG), a known AGE formation inhibitor, was used as a standard. The reaction mixture without inhibitors was used as a positive control. Color interference from the sample was eliminated by a sample control (buffer and sample). The fluorescence readings for the experimental treatment were blanked against extract blanks to eliminate the baseline fluorescence of the sample. The percentage of the AGE inhibition and IC50 was calculated as described in Section 3.3.1.

Method for HOCl scavenging activity: Briefly, a freshly prepared HOCl solution, by adjusting the pH of a 1% solution of NaOCl to 6.2 with dropwise addition of diluted H2SO4, was diluted to 30 µM, using 100 mM phosphate buffer pH 7.4. […] QCT was used as means of comparison. Fluorescence assays were performed in a microplate reader (Infinite® 200 PRO, TECAN, Männedorf, Switzerland), at 37 °C, at wavelengths of 505 ± 10 nm and 530 ± 10 nm, for excitation and emission, respectively. The results were expressed as IC50 (μg/mL) of extract solution.

procyanidins: the MGO capture percentage in assay [1] was 46.3%.

Consider `O=c1cc(-c2ccc(O)c(O)c2)oc2cc(O)cc(O)c12` [luteolin], for which the MGO capture percentage in assay [1] is 40.7%.

For the compound `O=c1c(O)c(-c2ccc(O)cc2)oc2cc(O)cc(O)c12` [kaempferol], in assay [1], the MGO capture percentage was 58.9%.

For `O=c1cc(-c2ccc(O)cc2)oc2cc(O)cc(O)c12` [apigenin], in assay [1], the MGO capture percentage is 36.5%.

Take `O=c1c(-c2ccc(O)cc2)coc2cc(O)cc(O)c12` [genistein]: the MGO capture percentage in assay [1] is 43.4%.

Regarding `COc1cc(-c2cc(=O)c3c(O)cc(O)cc3o2)ccc1O` [chrysoeriol], the MGO capture percentage in assay [1] is on record as 41.8%.

As for `O=c1c(O)c(-c2ccc(O)c(O)c2)oc2cc(O)cc(O)c12` [QCT, quercetin], in “HOCl scavenging activity”, the “HOCl IC50” value was 1.9 ± 0.3 µg/mL. Besides, the MGO capture percentage in assay [1] is listed as 21.4%. Further, the “DPPH• IC50” value in assay [2] (30 min) came to 4.8 ± 1.0 µg/mL. Moreover, the concentration for half-maximal inhibition (IC50) (usually the concentration needed to halve the response being measured) in assay [2] (data in parenthesis are in μM) is 15.9 µM; in assay [3] (data in parenthesis are in μM, read-out: O2•− IC50 (in parenthesis) (converted)), 29.2 µM. Besides, the “O2•− IC50” value in assay [3] was found to be 8.8 ± 0.3 µg/mL.

In assay [4], `N=C(N)NN` [AMG, Aminoguanidine] displayed an MGO trapping of 99.6%. For the same compound, in assay [5], the “Inhibition of Amyloid Fibrils (%), MGO” value is listed as 30.3 ± 4.4 ^c %. Besides, in the assay on BSA/MGO fluorescent AGEs, the “Antiglycation IC50, MGO” value is given as 50.4 ± 1.8 ^c μg/mL. In addition, the “Antiglycation IC50, Fructose + Glucose” value in assay [6] was 25.5 ± 5.0 ^c μg/mL.

For `CC1OC(OCC2OC(Oc3c(-c4ccc(O)cc4)oc4cc(OC5OC(C)C(O)C(O)C5O)cc(O)c4c3=O)C(O)C(O)C2O)C(O)C(O)C1O` (stereo not drawn) [robinin], in assay [1], the MGO capture percentage is 54.4%.

Turning to `C[C@@H]1O[C@@H](OC[C@H]2O[C@@H](Oc3c(-c4ccc(O)c(O)c4)oc4cc(O)cc(O)c4c3=O)[C@H](O)[C@@H](O)[C@@H]2O)[C@H](O)[C@H](O)[C@H]1O` [rutin], the MGO capture percentage in assay [1] is 49.3%.
